{
  "source": "patent US12606795B2",
  "about": "(Thankcome Biological Science and Technology (SuZhou) Co., …, priority 2023, dated 2026)",
  "key": {"S. typhimurium TA100": {"system": "S. typhimurium TA100", "settings": "TA100 −S9", "method": "(§1) Bacterial strains used were Salmonella typhimurium TA97a (National Center for Type Culture Collection NTCC, 506391), S. typhimurium TA98 (NTCC, 506392), S. typhimurium TA100 (NTCC, 506395), S. typhimurium TA1535 (NTCC, 506396), and Escherichia coli WP2 uvrA (CHI Scientific, Co., Ltd., product number: 6-1705). To prepare a drug delivery formulation, distilled water was used as a carrier to prepare a suspension (100 mg/mL) for a test item. […] Therefore, bacteria in samples for the test item were removed by a mechanical means. In the process of mixing the formulation, any soluble components for the test item was dissolved in the carrier, and then, residual bacteria were removed by centrifugation (4° C.; 8000 rpm; 10 min). After centrifugation, liquid supernatant was removed and sterile filtration was performed with a 0.22 μm filter.\n(§2) In the confirmatory mutation research, detection was performed at 15.81, 50, 158.1, 500, 1581, and 5000 μg/plate. The maximum concentration was recommended by current regulations and guidelines. […] The survival rate of test bacterial cells was checked through plate experiments in each test. If there is a dosage-related increase in the number of revertants, it is considered that the test item has mutagenicity, and/or a reproducible biology-related positive reaction targeting at least one dosage group occurs in at least one strain with or without metabolic activation."}, "[1]": {"system": "Escherichia coli WP2 uvrA", "settings": "Escherichia coli WP2A uvr −S9", "method": "as §1, §2"}},
  "data": [
    {"smiles": "COS(C)(=O)=O", "note": "[Positive control 2, methyl methylsulfonate]", "values": [
      {"measurement": "Number of revertant mutants per plate (mean ± standard deviation)", "setting": "S. typhimurium TA100", "value": 1347.00},
      {"measurement": "Number of revertant mutants per plate (mean ± standard deviation)", "setting": "[1]", "value": 613.40}
    ]}
  ]
}
